Earlier results, collected in US7044945B2, “Prevention of regression in thermal ciliary muscle tendinoplasty” (priority 2001, dated 2006).

Legend:
[1] = in mammals

Structure (SMILES)	tensile strength of the wounds (healing wound; compared with controls)	thermal shrinkage temperature of individual collagen fibers from the wounds (healing wound; treated wounds compared to comparable controls)	solubility in water and alcohol	toxicity [1]
CCN=C=NCCCN(C)C.Cl [1-ethyl-1-3 (3-dimethylaminopropyl) carbodiimide hydrochloride]	sizable increase	increased	–	–
OCC(O)CO [glycerol]	–	–	completely soluble	very low toxicity
